Test results from patent US20190105367A1, “ANTIMICROBIAL 4-OXOQUINOLIZINES” (Emergent Product Development Gaithersburg Inc., priority 2011, published 2019).

Key:
Format in all cases: cell-based, Acinetobacter baumannii
[1] = tested on: A. baumannii A390; assay: MIC without and with sub-inhibitory polymyxin B (Example 4); conditions: A. baumannii A390
[2] = tested on: A. baumannii A329; assay: as above; conditions: A. baumannii A329
[3] = tested on: A. baumannii A489; assay: Preliminary MBC without and with sub-inhibitory polymyxin B (Example 4); conditions: A. baumannii A489, preliminary MBC; for MBC: 2nd experiment
[4] = tested on: A. baumannii J2; assay: MIC without and with sub-inhibitory polymyxin B (Example 4); conditions: A. baumannii J2
[5] = tested on: A. baumannii A329; assay: Preliminary MBC without and with sub-inhibitory polymyxin B (Example 4); conditions: for MBC: 2nd experiment
[6] = tested on: A. baumannii NCTC 13301; assay: MIC without and with sub-inhibitory polymyxin B (Example 4); conditions: A. baumannii NCTC 13301, 2nd experiment
[7] = tested on: A. baumannii A472; assay: Preliminary MBC without and with sub-inhibitory polymyxin B (Example 4); conditions: A. baumannii A472, preliminary MBC; for MBC: 2nd experiment
[8] = tested on: A. baumannii A387; assay: as above; conditions: for MBC: 2nd experiment
[9] = tested on: A. baumannii A473; assay: as above; conditions: for MBC: 2nd experiment
Outline: (§1)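 Read-out: the minimum concentration at which colonies were reduced by ca. 90% relative to positive control, usually seen as isolated colonies or a clear plate. Plates had been kept 18-20 hours at 37° C beforehand.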

[10] = tested on: A. baumannii A14; assay: as above; conditions: 2nd experiment
Outline: as §1

[11] = tested on: A. baumannii NCTC 13301; assay: as above; conditions: A. baumannii NCTC 13301, preliminary MBC; for MBC: 2nd experiment
Outline: as §1

[12] = tested on: A. baumannii A390; assay: as above; conditions: for MBC: 2nd experiment
Outline: as §1

[13] = tested on: A. baumannii A401; assay: as above; conditions: for MBC: 2nd experiment
[14] = without polymyxin B, 1st experiment
[15] = +[…] polymyxin B, 1st experiment

Polymyxin B [reference compound]
MIC ([1]; +0.06 μg/ml PB, 2nd experiment): ≤0.125 µg/mL
MIC without PB/MIC + PB ([1]; +0.06 μg/ml PB, 2nd experiment): ≥2
MIC ([1]; without PB, 2nd experiment): 0.25 µg/mL
MIC without PB [1, 14]: 0.25 µg/mL
MIC ([2]; +0.06 μg/ml PB, 2nd experiment): 0.25 µg/mL
MIC without PB/MIC + PB ([2]; +0.06 μg/ml PB, 2nd experiment): 1
MIC ([2]; without PB, 2nd experiment): 0.25 µg/mL
MIC without PB [2, 14]: 0.5 µg/mL
MBC ([3]; +[…] PB): 0.25 µg/mL
MBC +[…] PB [3, 15]: 1 µg/mL
MBC ([3]; without PB): 0.5 µg/mL
MBC without PB [3, 14]: 2 µg/mL
MIC ([4]; +[…] PB, 2nd experiment): ≤0.125 µg/mL
MIC without PB/MIC + PB ([4]; +[…] PB, 2nd experiment): ≥4
MIC +[…] PB [4, 15]: 0.5 µg/mL
MIC without PB/MIC + PB ([4]; ratio, PB […], 1st experiment): 1
MIC ([4]; without PB, 2nd experiment): 0.5 µg/mL
MIC without PB [4, 14]: 0.5 µg/mL
MBC ([5]; A. baumannii A329, +0.06 μg/ml PB): 0.25 µg/mL
MBC ([5]; A. baumannii A329, without PB): 0.25 µg/mL
MBC without PB ([5]; A. baumannii A329, without polymyxin B, 1st experiment): 0.5 µg/mL
MIC ([6]; +[…] PB): ≤ 0.125 µg/mL
MIC without PB/MIC + PB ([6]; +[…] PB): ≥2
MIC ([6]; +[…] PB, value in parentheses marked *, mark not explained): 0.25 µg/mL
MIC ([6]; without PB): 0.25 µg/mL
MBC ([7]; +[…] PB): 0.25 µg/mL
MBC +[…] PB [7, 15]: ≤0.125 µg/mL
MBC ([7]; without PB): 0.5 µg/mL
MBC without PB [7, 14]: 0.5 µg/mL
MBC ([8]; A. baumannii A387, +0.06 μg/ml PB): 0.25 µg/mL
MBC +0.06 μg/ml PB ([8]; A. baumannii A387, +0.06 μg/ml polymyxin B, 1st experiment): 0.25 µg/mL
MBC ([8]; A. baumannii A387, without PB): 0.25 µg/mL
MBC without PB ([8]; A. baumannii A387, without polymyxin B, 1st experiment): 0.25 µg/mL
MBC ([9]; A. baumannii A473, +0.06 μg/ml PB): 0.25 µg/mL
MBC ([9]; A. baumannii A473, without PB): 0.25 µg/mL
MBC without PB ([9]; A. baumannii A473, without polymyxin B, 1st experiment): 1 µg/mL
MBC ([10]; A. baumannii A14, +0.06 μg/ml PB): 0.25 µg/mL
MBC ([10]; A. baumannii A14, without PB): 0.25 µg/mL
MBC ([11]; +[…] PB): ≤0.125 µg/mL
MBC +[…] PB [11, 15]: 0.5 µg/mL
MBC ([11]; without PB): 0.25 µg/mL
MBC without PB [11, 14]: 0.5 µg/mL
MBC ([12]; A. baumannii A390, +0.06 μg/ml PB): ≤0.125 µg/mL
MBC ([12]; A. baumannii A390, without PB): 0.25 µg/mL
MBC without PB ([12]; A. baumannii A390, without polymyxin B, 1st experiment): 0.25 µg/mL
MBC ([13]; A baumannii A 401, +0.06 μg/ml PB): 0.25 µg/mL
MBC +0.06 μg/ml PB ([13]; A baumannii A 401, +0.06 μg/ml polymyxin B, 1st experiment): 0.5 µg/mL
MBC ([13]; A baumannii A 401, without PB): 0.5 µg/mL
MBC without PB ([13]; A baumannii A 401, without polymyxin B, 1st experiment): 1 µg/mL
